This passage reports Activity and IC50 results from ChEMBL document CHEMBL5380810, “Scaffold Hybrid of the Natural Product Tanshinone I with Piperidine for the Discovery of a Potent NLRP3 Inflammasome Inhibitor” (J Med Chem, 2023).

What is called IC50 is the point on the concentration scale where inhibition reaches its midpoint.

For data set [1], the system named is Peritoneal macrophage. The data set can be described thus: Antiinflammatory activity against LPS-stimulated mouse peritoneal macrophage assessed as TNF-alpha level at 2 uM treated for 3 hrs followed by ATP addition measured after 30 mins by ELISA method relative to control. Type of data set: functional. Conditions: time 3.5 hrs. Background: ELISA stands for enzyme-linked immunosorbent assay.

Data set [2] concerns Peritoneal macrophage. The data set can be described thus: Cytotoxicity against mouse peritoneal macrophages at 4 uM incubated for 3.5 hrs by MTT assay. The format is toxicity, cell-based. (Formazan colour is commonly taken as a measure of viable cells.)
The test system of data set [3] is Peritoneal macrophage. Put plainly: Antiinflammatory activity against LPS-stimulated mouse peritoneal macrophage assessed as IL-1beta level at 2 uM treated for 3 hrs followed by ATP addition measured after 30 mins by ELISA method relative to control. The format is functional. Conditions: time 3.5 hrs.
For data set [4], the system named is Peritoneal macrophage. The data set can be described thus: Antiinflammatory activity against LPS-stimulated mouse peritoneal macrophage assessed as IL-6 level at 2 uM treated for 3 hrs followed by ATP addition measured after 30 mins by ELISA method. Type of data set: functional, cell-based. Conditions: time 3.5 hrs.
In data set [5] the test system is Peritoneal macrophage. Put plainly: Antiinflammatory activity against LPS-stimulated mouse peritoneal macrophage assessed as IL-6 level at 2 uM treated for 3 hrs followed by ATP addition measured after 30 mins by ELISA method relative to control. The format is functional. Conditions: time 3.5 hrs.
The subject of data set [6] is Peritoneal macrophage. The data set can be described thus: Antiinflammatory activity against LPS-stimulated mouse peritoneal macrophage assessed as inhibition of IL-1beta secretion treated for 3 hrs followed by ATP addition measured after 30 mins by ELISA method. Type of data set: functional, cell-based.

Active and inactive are the calls of the source. No cut-off for these calls is given here.

Regarding `CCCCN1CCc2c(oc3c2C(=O)C(=O)c2c-3ccc3c(C)cccc23)C1`, the Activity in the data set with Peritoneal macrophage [1] was 14%; with Peritoneal macrophage [2], “Non-Toxic”; in the data set on Peritoneal macrophage [3], 38%. Further, the result in the data set on Peritoneal macrophage [4] was inactive.
For `Cc1cccc2c3c(ccc12)-c1oc2c(c1C(=O)C3=O)CCN(CCS(C)(=O)=O)C2`, in that order: 46%, “Non-Toxic”, 90% and “inactive”.
With `Cc1cccc2c3c(ccc12)-c1oc2c(c1C(=O)C3=O)CCN(CC(=O)N1CCN(C)CC1)C2`, the Activity in the data set with Peritoneal macrophage [1] was 35%; in the data set with Peritoneal macrophage [2] it was “Non-Toxic”; with Peritoneal macrophage [3] it was 77%. Also, in the data set with Peritoneal macrophage [4], the outcome was inactive.
In the case of `Cc1cccc2c3c(ccc12)-c1oc2c(c1C(=O)C3=O)CCN([C@H](CO)Cc1ccccc1)C2`, the Activity was 9% in the data set with Peritoneal macrophage [5], 45% in the data set with Peritoneal macrophage [1], “Non-Toxic” with Peritoneal macrophage [2] and 56% with Peritoneal macrophage [3].
For `COC(=O)CC[C@@H](C(=O)OC)N1CCc2c(oc3c2C(=O)C(=O)c2c-3ccc3c(C)cccc23)C1`, in that order: 41%, 58%, “Non-Toxic” and 65%.
As to `COC(=O)[C@H](C)N1CCc2c(oc3c2C(=O)C(=O)c2c-3ccc3c(C)cccc23)C1`, the values for the Activity in the data set on Peritoneal macrophage [1], with Peritoneal macrophage [2] and in the data set on Peritoneal macrophage [3] were 25%, “Non-Toxic” and 65%, respectively. The outcome in the data set with Peritoneal macrophage [4] was inactive.
As to `Cc1cccc2c3c(ccc12)-c1oc2c(c1C(=O)C3=O)CCN(CCCN(C)C)C2`, the Activity with Peritoneal macrophage [5] is listed as 8%; with Peritoneal macrophage [1] it was 19%; in the data set with Peritoneal macrophage [2] it was “Non-Toxic”; with Peritoneal macrophage [3], 95%.
`Cc1cccc2c3c(ccc12)-c1oc2c(c1C(=O)C3=O)CCN(CCn1ccnc1)C2`: the Activity with Peritoneal macrophage [1] is given as 29%; in the data set with Peritoneal macrophage [2], “Non-Toxic”; in the data set on Peritoneal macrophage [3] it was 96%. The outcome with Peritoneal macrophage [4] was inactive.
For the molecule `COC(=O)CCCN1CCc2c(oc3c2C(=O)C(=O)c2c-3ccc3c(C)cccc23)C1`, the Activity in the data set on Peritoneal macrophage [5] was 32%; with Peritoneal macrophage [1] it was 43%; in the data set on Peritoneal macrophage [2], “Non-Toxic”; in the data set with Peritoneal macrophage [3] it was 67%.
For `Cc1cccc2c3c(ccc12)-c1oc2c(c1C(=O)C3=O)CCN([C@@H](C)C(=O)N1CCOCC1)C2`, the Activity is listed as 52% in the data set on Peritoneal macrophage [1], “Non-Toxic” in the data set with Peritoneal macrophage [2] and 98% with Peritoneal macrophage [3]. In the data set with Peritoneal macrophage [4], the result was inactive. Besides, the IC50 in the data set on Peritoneal macrophage [6] came to 2920 nM.
`Cc1cccc2c3c(ccc12)-c1oc2c(c1C(=O)C3=O)CCN(CCCn1ccnc1)C2`: the Activity was 17% in the data set on Peritoneal macrophage [1], “Non-Toxic” in the data set on Peritoneal macrophage [2] and 95% in the data set on Peritoneal macrophage [3]. The result with Peritoneal macrophage [4] was inactive.
As for `Cc1cccc2c3c(ccc12)-c1oc2c(c1C(=O)C3=O)CCN(CCCN1CC[C@@H](O)C1)C2`, the Activity was 33% in the data set with Peritoneal macrophage [1], “Non-Toxic” with Peritoneal macrophage [2] and 92% in the data set with Peritoneal macrophage [3]. Moreover, the outcome in the data set with Peritoneal macrophage [4] was inactive.
Consider `CNC(=O)CN1CCc2c(oc3c2C(=O)C(=O)c2c-3ccc3c(C)cccc23)C1`, for which the Activity with Peritoneal macrophage [5] was 19%; in the data set with Peritoneal macrophage [1], 36%; with Peritoneal macrophage [2] it was “Non-Toxic”; with Peritoneal macrophage [3] it was 92%.
For `Cc1cccc2c3c(ccc12)-c1oc2c(c1C(=O)C3=O)CCN(CCN(C)C)C2`, in that order: 3%, 20%, “Non-Toxic” and 88%.
Take `Cc1cccc2c3c(ccc12)-c1oc2c(c1C(=O)C3=O)CCN(CCN1CCN(C)CC1)C2`: the Activity is 19% with Peritoneal macrophage [1], “Non-Toxic” with Peritoneal macrophage [2] and 61% with Peritoneal macrophage [3]. Further, the result in the data set on Peritoneal macrophage [4] was inactive.
On to `COC(=O)CN1CCc2c(oc3c2C(=O)C(=O)c2c-3ccc3c(C)cccc23)C1`, for which the Activity with Peritoneal macrophage [5] is 6%; with Peritoneal macrophage [1], 31%; with Peritoneal macrophage [2], “Non-Toxic”; with Peritoneal macrophage [3], 70%.
For `Cc1cccc2c3c(ccc12)-c1oc2c(c1C(=O)C3=O)CCN(C)C2`, in that order: 18%, 16%, “Non-Toxic” and 40%.
For `COC(=O)CCN1CCc2c(oc3c2C(=O)C(=O)c2c-3ccc3c(C)cccc23)C1`, in that order: 34%, 46%, “Non-Toxic” and 87%.
For the molecule `Cc1cccc2c3c(ccc12)-c1oc2c(c1C(=O)C3=O)CCN(CCCN1CCC(N3CCOCC3)CC1)C2`, the Activity in the data set with Peritoneal macrophage [1] is reported as 40%; with Peritoneal macrophage [2] it was “Non-Toxic”; in the data set with Peritoneal macrophage [3] it was 88%. In the data set with Peritoneal macrophage [4], the outcome was inactive.
For `Cc1cccc2c3c(ccc12)-c1oc2c(c1C(=O)C3=O)CCN(CCC(=O)N1CCOCC1)C2`, in that order: 10%, “Non-Toxic”, 92% and “inactive”.
Regarding `Cc1cccc2c3c(ccc12)-c1oc2c(c1C(=O)C3=O)CCNC2`, the Activity is recorded as 13% with Peritoneal macrophage [5], 22% in the data set with Peritoneal macrophage [1], “Non-Toxic” with Peritoneal macrophage [2] and 16% in the data set on Peritoneal macrophage [3].
Take `COC(=O)[C@H](Cc1ccccc1)N1CCc2c(oc3c2C(=O)C(=O)c2c-3ccc3c(C)cccc23)C1`: the Activity in the data set on Peritoneal macrophage [1] is 24%; with Peritoneal macrophage [2], “Non-Toxic”; in the data set on Peritoneal macrophage [3], 23%. The result in the data set on Peritoneal macrophage [4] was inactive.
For `Cc1cccc2c3c(ccc12)-c1oc2c(c1C(=O)C3=O)CCN(CCCN1CCN(C)CC1)C2`, in that order: 51%, “Non-Toxic”, 95% and “inactive”.
`Cc1cccc2c3c(ccc12)-c1oc2c(c1C(=O)C3=O)CCN(CCCN1CCCC1)C2`: the Activity in the data set on Peritoneal macrophage [5] was 31%; in the data set on Peritoneal macrophage [1], 13%; in the data set with Peritoneal macrophage [2], “Non-Toxic”; with Peritoneal macrophage [3], 94%.
`CNC(=O)[C@H](C)N1CCc2c(oc3c2C(=O)C(=O)c2c-3ccc3c(C)cccc23)C1`: the Activity with Peritoneal macrophage [1] is on record as 31%; in the data set on Peritoneal macrophage [2], “Non-Toxic”; with Peritoneal macrophage [3] it was 96%. Further, the result with Peritoneal macrophage [4] was inactive.
On to `Cc1cccc2c3c(ccc12)-c1oc2c(c1C(=O)C3=O)CCN([C@@H](C)CO)C2`, for which the Activity in the data set with Peritoneal macrophage [1] is given as 40%; with Peritoneal macrophage [2] it was “Non-Toxic”; in the data set on Peritoneal macrophage [3], 49%. In the data set on Peritoneal macrophage [4], the result was inactive.
With `Cc1cccc2c3c(ccc12)-c1oc2c(c1C(=O)C3=O)CCN(CC(=O)N(C)C)C2`, the Activity in the data set on Peritoneal macrophage [5] is on record as 11%; in the data set with Peritoneal macrophage [1], 52%; with Peritoneal macrophage [2], “Non-Toxic”; with Peritoneal macrophage [3] it was 71%.
Consider `CC(C)(O)c1coc(S(=O)(=O)NC(=O)Nc2c3c(cc4c2CCC4)CCC3)c1`, for which the figures for the Activity with Peritoneal macrophage [1] and in the data set with Peritoneal macrophage [3] were 12% and 98%, respectively. Moreover, the outcome with Peritoneal macrophage [4] was inactive.
